Reference: the supplement of paper PMC10307832

How the values were obtained:
Assay in all cases: relative viability (nuclei count vs DMSO), 5 days (fraction); higher = more cells survive
[1] = tested on: NCI-H1651
In short: (§1)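 Lung cancer cell lines, seeded in 1536-well plates, were treated the following day by pin tool with a single drug or with five library-drug doses (not always all listed) in √10 steps on top of a fixed anchor-drug dose. Cells were fixed and nuclei stained in one step after 5 days, and nuclei were counted. Relative viability is the nuclei count for treated wells divided by that for vehicle wells, reported as medians of duplicate plates.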

[2] = tested on: HCC-366
In short: as §1

[3] = tested on: NCI-H460
In short: as §1

[4] = tested on: LC-2-ad
In short: as §1

[5] = tested on: UMC-11
In short: as §1

[6] = tested on: RERF-LC-KJ
In short: as §1

[7] = tested on: LU99A
In short: as §1

[8] = tested on: NCI-H2087
In short: as §1

[9] = tested on: NCI-H2170
In short: as §1

[10] = tested on: NCI-H1734
In short: as §1

[11] = tested on: CAL-12T
In short: as §1

[12] = tested on: NCI-H1755
In short: as §1

[13] = tested on: LOU-NH91
In short: as §1

[14] = tested on: NCI-H1944
In short: as §1

[15] = tested on: EPLC-272H
In short: as §1

[16] = tested on: NCI-H1793
In short: as §1

[17] = tested on: HCC-78
In short: as §1

[18] = tested on: ChaGo-K-1
In short: as §1

[19] = tested on: PC-3 [JPC-3]
In short: as §1

[20] = tested on: NCI-H2228
In short: as §1

[21] = tested on: NCI-H2405
In short: as §1

[22] = tested on: NCI-H1395
In short: as §1

[23] = tested on: NCI-H3122
In short: as §1

For `COc1cc(N2CCC(C(N)=O)CC2)ccc1Nc1nc(N)c(Cl)c(Nc2ccccc2S(=O)(=O)C(C)C)n1` [HG-5-88-01] + CC(=O)Nc1cccc(-n2c(=O)n(C3CC3)c(=O)c3c(Nc4ccc(I)cc4F)n(C)c(=O)c(C)c32)c1 [Trametinib] (partner 0.02 µM), the relative viability ([1]; first compound 0.04 µM) was 0.918, the relative viability ([1]; first compound 0.1265 µM) was 0.862 and the relative viability ([1]; first compound 0.4 µM) was 0.799. It also gave a relative viability ([1]; first compound 1.265 µM) of 0.744, a relative viability ([1]; first compound 4 µM) of 0.957 and a relative viability ([2]; first compound 0.04 µM) of 0.429. It also gave a relative viability ([2]; first compound 0.1265 µM) of 0.366, a relative viability ([2]; first compound 0.4 µM) of 0.365 and a relative viability ([2]; first compound 1.265 µM) of 0.361. The relative viability ([2]; first compound 4 µM) was 0.243, the relative viability ([3]; first compound 0.04 µM) was 0.131 and the relative viability ([3]; first compound 0.1265 µM) was 0.124. The relative viability ([3]; first compound 0.4 µM) was 0.13, the relative viability ([3]; first compound 1.265 µM) was 0.0779 and the relative viability ([3]; first compound 4 µM) was 0.123. For the same compound, the relative viability ([4]; first compound 0.04 µM) was 0.934, the relative viability ([4]; first compound 0.1265 µM) was 0.86 and the relative viability ([4]; first compound 0.4 µM) was 0.865. The relative viability ([4]; first compound 1.265 µM) was 0.896, the relative viability ([4]; first compound 4 µM) was 0.993 and the relative viability ([5]; first compound 0.04 µM) was 0.532. The relative viability ([5]; first compound 0.1265 µM) was 0.861, the relative viability ([5]; first compound 0.4 µM) was 0.727 and the relative viability ([5]; first compound 1.265 µM) was 0.707. It also gave a relative viability ([5]; first compound 4 µM) of 0.531, a relative viability ([6]; first compound 0.04 µM) of 0.79 and a relative viability ([6]; first compound 0.1265 µM) of 0.902. For the same compound, the relative viability ([6]; first compound 0.4 µM) was 0.744, the relative viability ([6]; first compound 1.265 µM) was 0.713 and the relative viability ([6]; first compound 4 µM) was 0.714. The relative viability ([7]; first compound 0.04 µM) was 0.584, the relative viability ([7]; first compound 0.1265 µM) was 0.565 and the relative viability ([7]; first compound 0.4 µM) was 0.543. For the same compound, the relative viability ([7]; first compound 1.265 µM) was 0.429, the relative viability ([7]; first compound 4 µM) was 0.493 and the relative viability ([8]; first compound 0.04 µM) was 0.238. The relative viability ([8]; first compound 0.1265 µM) was 0.218, the relative viability ([8]; first compound 0.4 µM) was 0.194 and the relative viability ([8]; first compound 1.265 µM) was 0.15. For the same compound, the relative viability ([8]; first compound 4 µM) was 0.164, the relative viability ([9]; first compound 0.04 µM) was 0.961 and the relative viability ([9]; first compound 0.1265 µM) was 0.964. It also gave a relative viability ([9]; first compound 0.4 µM) of 0.894, a relative viability ([9]; first compound 1.265 µM) of 0.672 and a relative viability ([9]; first compound 4 µM) of 1.03. It also gave a relative viability ([10]; first compound 0.04 µM) of 0.669, a relative viability ([10]; first compound 0.1265 µM) of 0.755 and a relative viability ([10]; first compound 0.4 µM) of 0.643. For the same compound, the relative viability ([10]; first compound 1.265 µM) was 0.623, the relative viability ([10]; first compound 4 µM) was 0.621 and the relative viability ([11]; first compound 0.04 µM) was 0.377. For the same compound, the relative viability ([11]; first compound 0.1265 µM) was 0.378, the relative viability ([11]; first compound 0.4 µM) was 0.3 and the relative viability ([11]; first compound 1.265 µM) was 0.227. For the same compound, the relative viability ([11]; first compound 4 µM) was 0.201, the relative viability ([12]; first compound 0.04 µM) was 0.765 and the relative viability ([12]; first compound 0.1265 µM) was 0.72. For the same compound, the relative viability ([12]; first compound 0.4 µM) was 0.773, the relative viability ([12]; first compound 1.265 µM) was 0.78 and the relative viability ([12]; first compound 4 µM) was 0.792. It also gave a relative viability ([13]; first compound 0.04 µM) of 0.74, a relative viability ([13]; first compound 0.1265 µM) of 0.787 and a relative viability ([13]; first compound 0.4 µM) of 0.602. The relative viability ([13]; first compound 1.265 µM) was 0.567, the relative viability ([13]; first compound 4 µM) was 0.579 and the relative viability ([14]; first compound 0.04 µM) was 0.386. The relative viability ([14]; first compound 0.1265 µM) was 0.48, the relative viability ([14]; first compound 0.4 µM) was 0.396 and the relative viability ([14]; first compound 1.265 µM) was 0.398. For the same compound, the relative viability ([14]; first compound 4 µM) was 0.398, the relative viability ([15]; first compound 0.04 µM) was 0.316 and the relative viability ([15]; first compound 0.1265 µM) was 0.308. It also gave a relative viability ([15]; first compound 0.4 µM) of 0.279, a relative viability ([15]; first compound 1.265 µM) of 0.205 and a relative viability ([15]; first compound 4 µM) of 0.0984. For the same compound, the relative viability ([16]; first compound 0.04 µM) was 0.433, the relative viability ([16]; first compound 0.1265 µM) was 0.381 and the relative viability ([16]; first compound 0.4 µM) was 0.462. It also gave a relative viability ([16]; first compound 1.265 µM) of 0.432, a relative viability ([16]; first compound 4 µM) of 0.578 and a relative viability ([17]; first compound 0.04 µM) of 0.737. It also gave a relative viability ([17]; first compound 0.1265 µM) of 0.455, a relative viability ([17]; first compound 0.4 µM) of 0.492 and a relative viability ([17]; first compound 1.265 µM) of 0.289. For the same compound, the relative viability ([17]; first compound 4 µM) was 0.348, the relative viability ([18]; first compound 0.04 µM) was 0.868 and the relative viability ([18]; first compound 0.1265 µM) was 0.908. The relative viability ([18]; first compound 0.4 µM) was 0.843, the relative viability ([18]; first compound 1.265 µM) was 0.925 and the relative viability ([18]; first compound 4 µM) was 0.875. The relative viability ([19]; first compound 0.04 µM) was 0.708, the relative viability ([19]; first compound 0.1265 µM) was 0.738 and the relative viability ([19]; first compound 0.4 µM) was 0.684. For the same compound, the relative viability ([19]; first compound 1.265 µM) was 0.448, the relative viability ([19]; first compound 4 µM) was 0.361 and the relative viability ([20]; first compound 0.04 µM) was 0.214. For the same compound, the relative viability ([20]; first compound 0.1265 µM) was 0.108, the relative viability ([20]; first compound 0.4 µM) was 0.268 and the relative viability ([20]; first compound 1.265 µM) was 0.174. For the same compound, the relative viability ([20]; first compound 4 µM) was 0.231, the relative viability ([21]; first compound 0.04 µM) was 0.676 and the relative viability ([21]; first compound 0.1265 µM) was 0.706. The relative viability ([21]; first compound 0.4 µM) was 0.529, the relative viability ([21]; first compound 1.265 µM) was 0.455 and the relative viability ([21]; first compound 4 µM) was 0.545. For the same compound, the relative viability ([22]; first compound 0.04 µM) was 1, the relative viability ([22]; first compound 0.1265 µM) was 1.21 and the relative viability ([22]; first compound 0.4 µM) was 1.08. For the same compound, the relative viability ([22]; first compound 1.265 µM) was 0.773, the relative viability ([22]; first compound 4 µM) was 1.13 and the relative viability ([23]; first compound 0.04 µM) was 0.223. The relative viability ([23]; first compound 0.1265 µM) was 0.169, the relative viability ([23]; first compound 0.4 µM) was 0.154 and the relative viability ([23]; first compound 1.265 µM) was 0.132. It also gave a relative viability ([23]; first compound 4 µM) of 0.0965.
